# Data reported in the kinase profiling compilation of Christmann-Franck et al. (2016).
# Legend:
# Assay in all cases: radiometric filter-binding kinase assay, Kinase HotSpot
# Conditions in all cases: compound 0.5 µM; ATP 10 µM
# [1] = molecular target: AKT3 (human) (UniProt Q9Y243)
# [2] = molecular target: AURKA (human) (UniProt O14965)
# [3] = molecular target: AURKB (human) (UniProt Q96GD4)
# [4] = molecular target: BLK (human) (UniProt P51451)
# [5] = molecular target: CAMKK1 (human) (UniProt Q8N5S9)
# [6] = molecular target: CDC42BPB (human) (UniProt Q9Y5S2)
# [7] = molecular target: CDK5 CDK5R1 p25 (human) (UniProt Q00535+Q15078)
# [8] = molecular target: CSNK1A1 (human) (UniProt P48729)
# [9] = molecular target: CSNK1D (human) (UniProt P48730)
# [10] = molecular target: CSNK1E (human) (UniProt P49674)
# [11] = molecular target: DAPK1 (human) (UniProt P53355)
# [12] = molecular target: DMPK (human) (UniProt Q09013)
# [13] = molecular target: DYRK1A (human) (UniProt Q13627)
# [14] = molecular target: FES (human) (UniProt P07332)
# [15] = molecular target: FGR (human) (UniProt P09769)
# [16] = molecular target: FLT1 (human) (UniProt P17948)
# [17] = molecular target: GSK3A (human) (UniProt P49840)
# [18] = molecular target: HIPK2 (human) (UniProt Q9H2X6)
# [19] = molecular target: INSRR (human) (UniProt P14616)
# [20] = molecular target: JAK1 JH1 catalytic (human) (UniProt P23458)
# [21] = molecular target: JAK2 JH1 JH2 (human) (UniProt O60674)
# [22] = molecular target: MAP2K2 (human) (UniProt P36507)
# [23] = molecular target: MAP3K11 (human) (UniProt Q16584)
# [24] = molecular target: MAP3K2 (human) (UniProt Q9Y2U5)
# [25] = molecular target: MAPK11 (human) (UniProt Q15759)
# [26] = molecular target: MET (human) (UniProt P08581)
# [27] = molecular target: MLTK (human) (UniProt Q9NYL2)
# [28] = molecular target: MYLK2 (human) (UniProt Q9H1R3)
# [29] = molecular target: OXSR1 (human) (UniProt O95747)
# [30] = molecular target: PDGFRB (human) (UniProt P09619)
# [31] = molecular target: PIM2 (human) (UniProt Q9P1W9)
# [32] = molecular target: PRKCD (human) (UniProt Q05655)
# [33] = molecular target: PRKG2 (human) (UniProt Q13237)
# [34] = molecular target: PTK2 (human) (UniProt Q05397)
# [35] = molecular target: RAF1 (human) (UniProt P04049)
# [36] = molecular target: RPS6KA2 KD1 KD2 (human) (UniProt Q15349)
# [37] = molecular target: SGK3 (human) (UniProt Q96BR1)
# [38] = molecular target: SRC (human) (UniProt P12931)
# [39] = molecular target: STK4 (human) (UniProt Q13043)
# [40] = molecular target: TGFBR1 (human) (UniProt P36897)
# [41] = molecular target: YES1 (human) (UniProt P07947)
# [42] = molecular target: EPHB2 (human) (UniProt P29323)
# Chain of DAPK1 (human) (P53355 whole entry, looked up): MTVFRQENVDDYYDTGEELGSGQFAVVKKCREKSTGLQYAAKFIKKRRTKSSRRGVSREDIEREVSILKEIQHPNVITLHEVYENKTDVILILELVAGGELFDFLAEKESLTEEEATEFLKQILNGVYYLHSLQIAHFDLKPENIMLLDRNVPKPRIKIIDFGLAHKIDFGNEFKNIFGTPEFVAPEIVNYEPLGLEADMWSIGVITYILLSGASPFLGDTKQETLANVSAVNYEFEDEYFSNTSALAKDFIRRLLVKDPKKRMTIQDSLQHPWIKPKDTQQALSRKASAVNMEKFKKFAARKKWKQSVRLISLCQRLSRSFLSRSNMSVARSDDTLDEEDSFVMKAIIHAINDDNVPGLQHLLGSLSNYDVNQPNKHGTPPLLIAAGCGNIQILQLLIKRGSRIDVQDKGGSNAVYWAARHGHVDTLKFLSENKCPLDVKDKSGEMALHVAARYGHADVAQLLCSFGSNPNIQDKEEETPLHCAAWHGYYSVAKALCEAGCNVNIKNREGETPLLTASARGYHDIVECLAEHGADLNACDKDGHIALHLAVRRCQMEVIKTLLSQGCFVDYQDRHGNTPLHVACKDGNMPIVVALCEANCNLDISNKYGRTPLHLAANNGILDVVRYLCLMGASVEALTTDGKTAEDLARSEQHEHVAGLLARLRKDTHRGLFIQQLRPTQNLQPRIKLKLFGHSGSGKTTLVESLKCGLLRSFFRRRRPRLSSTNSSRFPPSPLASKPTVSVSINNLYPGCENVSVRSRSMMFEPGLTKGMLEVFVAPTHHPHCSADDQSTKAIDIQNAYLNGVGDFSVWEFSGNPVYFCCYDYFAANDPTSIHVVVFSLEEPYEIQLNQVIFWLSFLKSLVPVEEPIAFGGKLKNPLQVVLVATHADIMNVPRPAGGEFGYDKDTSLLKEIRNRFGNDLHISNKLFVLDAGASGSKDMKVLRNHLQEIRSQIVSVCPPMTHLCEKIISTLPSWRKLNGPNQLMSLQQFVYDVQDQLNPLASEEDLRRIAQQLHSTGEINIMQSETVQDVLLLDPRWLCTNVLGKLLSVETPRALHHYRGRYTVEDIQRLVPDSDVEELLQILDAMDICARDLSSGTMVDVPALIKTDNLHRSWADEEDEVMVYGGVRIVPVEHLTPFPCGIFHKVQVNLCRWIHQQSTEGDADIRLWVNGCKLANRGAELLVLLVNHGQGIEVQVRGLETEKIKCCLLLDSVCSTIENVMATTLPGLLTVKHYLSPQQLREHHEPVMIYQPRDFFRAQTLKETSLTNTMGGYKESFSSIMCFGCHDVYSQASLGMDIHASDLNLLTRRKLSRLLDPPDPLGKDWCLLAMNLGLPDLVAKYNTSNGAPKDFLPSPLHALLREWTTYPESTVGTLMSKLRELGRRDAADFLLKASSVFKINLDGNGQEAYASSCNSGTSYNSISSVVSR
# Chain of MAP2K2 (human) (P36507 whole entry, looked up): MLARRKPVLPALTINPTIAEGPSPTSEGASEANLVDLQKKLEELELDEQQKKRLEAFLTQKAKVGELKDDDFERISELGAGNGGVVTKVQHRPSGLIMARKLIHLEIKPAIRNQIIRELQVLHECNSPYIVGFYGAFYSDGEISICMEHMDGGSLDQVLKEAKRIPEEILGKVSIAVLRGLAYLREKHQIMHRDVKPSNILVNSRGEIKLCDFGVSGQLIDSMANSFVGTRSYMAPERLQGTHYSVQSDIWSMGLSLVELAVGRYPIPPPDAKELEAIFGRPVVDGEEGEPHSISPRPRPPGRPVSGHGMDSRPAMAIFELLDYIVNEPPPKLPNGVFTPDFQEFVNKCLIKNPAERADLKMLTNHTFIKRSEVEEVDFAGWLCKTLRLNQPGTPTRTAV
# Chain of PRKG2 (human) (Q13237 whole entry, looked up): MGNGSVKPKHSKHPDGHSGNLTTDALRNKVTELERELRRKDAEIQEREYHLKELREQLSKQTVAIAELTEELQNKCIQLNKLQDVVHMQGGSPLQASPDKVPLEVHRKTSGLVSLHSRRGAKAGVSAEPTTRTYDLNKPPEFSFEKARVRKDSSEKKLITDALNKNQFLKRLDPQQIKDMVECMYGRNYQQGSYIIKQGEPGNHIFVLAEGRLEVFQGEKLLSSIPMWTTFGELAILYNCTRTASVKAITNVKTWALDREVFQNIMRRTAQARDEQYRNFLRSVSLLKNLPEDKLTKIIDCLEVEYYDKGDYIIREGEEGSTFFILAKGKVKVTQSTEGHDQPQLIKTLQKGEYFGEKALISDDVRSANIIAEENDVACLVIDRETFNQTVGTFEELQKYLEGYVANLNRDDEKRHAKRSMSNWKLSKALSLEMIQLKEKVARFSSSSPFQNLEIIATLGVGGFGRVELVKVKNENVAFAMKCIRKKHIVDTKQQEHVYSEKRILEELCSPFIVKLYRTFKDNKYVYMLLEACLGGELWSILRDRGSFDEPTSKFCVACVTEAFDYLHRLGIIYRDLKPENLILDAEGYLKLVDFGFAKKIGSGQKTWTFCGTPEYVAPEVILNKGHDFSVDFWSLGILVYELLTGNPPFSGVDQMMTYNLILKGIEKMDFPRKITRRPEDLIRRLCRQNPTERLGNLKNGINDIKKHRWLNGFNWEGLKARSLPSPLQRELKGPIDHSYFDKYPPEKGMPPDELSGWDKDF
# Chain of PDGFRB (human) (P09619 whole entry, looked up): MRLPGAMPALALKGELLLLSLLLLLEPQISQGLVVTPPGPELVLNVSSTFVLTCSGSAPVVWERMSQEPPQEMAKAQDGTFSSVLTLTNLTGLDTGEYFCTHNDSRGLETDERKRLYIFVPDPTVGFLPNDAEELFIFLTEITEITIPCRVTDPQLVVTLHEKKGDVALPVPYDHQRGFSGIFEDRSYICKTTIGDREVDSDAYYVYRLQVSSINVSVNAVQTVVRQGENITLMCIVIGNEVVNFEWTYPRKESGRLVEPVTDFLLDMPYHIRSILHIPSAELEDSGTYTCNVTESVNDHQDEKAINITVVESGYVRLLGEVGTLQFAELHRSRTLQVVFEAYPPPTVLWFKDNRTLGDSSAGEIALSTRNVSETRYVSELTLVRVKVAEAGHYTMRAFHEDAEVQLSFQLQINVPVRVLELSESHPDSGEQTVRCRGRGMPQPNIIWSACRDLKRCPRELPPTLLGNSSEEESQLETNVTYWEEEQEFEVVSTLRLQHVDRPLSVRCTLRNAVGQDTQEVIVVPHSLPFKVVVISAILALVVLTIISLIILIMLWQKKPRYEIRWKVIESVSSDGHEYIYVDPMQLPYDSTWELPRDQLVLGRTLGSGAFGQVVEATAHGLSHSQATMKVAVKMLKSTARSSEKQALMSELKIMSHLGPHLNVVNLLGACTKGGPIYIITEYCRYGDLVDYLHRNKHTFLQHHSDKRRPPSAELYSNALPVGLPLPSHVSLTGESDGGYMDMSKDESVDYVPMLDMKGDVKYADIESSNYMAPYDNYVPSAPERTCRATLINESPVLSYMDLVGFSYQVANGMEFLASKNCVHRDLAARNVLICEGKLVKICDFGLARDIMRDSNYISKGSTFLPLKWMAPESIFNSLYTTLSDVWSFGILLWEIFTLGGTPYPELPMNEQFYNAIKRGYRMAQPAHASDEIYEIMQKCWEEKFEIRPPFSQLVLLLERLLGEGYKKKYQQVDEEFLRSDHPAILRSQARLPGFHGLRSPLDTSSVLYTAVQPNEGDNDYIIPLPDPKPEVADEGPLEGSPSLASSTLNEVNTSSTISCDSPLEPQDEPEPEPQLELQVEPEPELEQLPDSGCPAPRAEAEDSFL
# Chain of SRC (human) (P12931 whole entry, looked up): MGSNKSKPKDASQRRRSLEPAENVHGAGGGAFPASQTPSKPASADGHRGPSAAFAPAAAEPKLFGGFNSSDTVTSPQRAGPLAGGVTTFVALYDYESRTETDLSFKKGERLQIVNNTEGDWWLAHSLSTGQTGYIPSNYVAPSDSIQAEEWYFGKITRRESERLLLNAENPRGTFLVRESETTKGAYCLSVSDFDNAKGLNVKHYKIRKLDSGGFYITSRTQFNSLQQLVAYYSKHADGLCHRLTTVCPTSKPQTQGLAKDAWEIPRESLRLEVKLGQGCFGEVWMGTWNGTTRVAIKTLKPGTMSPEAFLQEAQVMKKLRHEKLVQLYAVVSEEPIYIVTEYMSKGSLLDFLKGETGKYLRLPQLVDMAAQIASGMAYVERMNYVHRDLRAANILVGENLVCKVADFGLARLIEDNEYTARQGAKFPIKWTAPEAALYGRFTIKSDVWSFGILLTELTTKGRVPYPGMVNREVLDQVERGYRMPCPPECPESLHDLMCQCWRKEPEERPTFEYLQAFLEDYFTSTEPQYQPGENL
# Chain of RPS6KA2 KD1 KD2 (human) (Q15349 whole entry, looked up): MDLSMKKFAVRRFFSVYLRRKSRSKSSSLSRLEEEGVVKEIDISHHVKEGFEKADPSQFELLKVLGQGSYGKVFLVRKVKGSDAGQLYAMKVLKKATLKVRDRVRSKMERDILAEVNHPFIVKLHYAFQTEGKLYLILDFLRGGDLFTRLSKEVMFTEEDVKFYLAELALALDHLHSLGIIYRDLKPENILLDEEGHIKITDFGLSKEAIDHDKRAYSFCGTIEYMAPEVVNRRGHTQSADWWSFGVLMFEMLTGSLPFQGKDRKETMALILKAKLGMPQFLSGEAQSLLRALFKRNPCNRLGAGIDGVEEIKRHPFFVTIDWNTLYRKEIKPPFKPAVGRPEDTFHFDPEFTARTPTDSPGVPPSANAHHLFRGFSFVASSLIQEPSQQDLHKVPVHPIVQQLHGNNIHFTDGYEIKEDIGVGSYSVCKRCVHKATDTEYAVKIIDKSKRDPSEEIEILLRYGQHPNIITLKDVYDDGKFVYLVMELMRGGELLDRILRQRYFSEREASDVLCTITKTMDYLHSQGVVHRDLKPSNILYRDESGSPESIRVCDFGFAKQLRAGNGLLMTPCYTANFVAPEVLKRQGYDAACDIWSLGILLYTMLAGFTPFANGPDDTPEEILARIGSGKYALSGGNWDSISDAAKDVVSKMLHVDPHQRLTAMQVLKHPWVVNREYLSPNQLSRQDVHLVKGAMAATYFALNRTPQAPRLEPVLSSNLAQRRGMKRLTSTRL
smiles,measurement,setting,value
Cc1cncc2cccc(S(=O)(=O)N3CCCN(C(=O)CN)C[C@H]3C)c12,residual activity,[1],98.8%
same,residual activity,[2],64.7%
same,residual activity,[3],34.9%
same,residual activity,[4],97.7%
same,residual activity,[5],115%
same,residual activity,[6],105%
same,residual activity,[7],94.1%
same,residual activity,[8],98.9%
same,residual activity,[9],107%
same,residual activity,[10],100%
same,residual activity,[11],97.9%
same,residual activity,[12],105%
same,residual activity,[13],93.1%
same,residual activity,[14],102%
same,residual activity,[15],94.1%
same,residual activity,[16],96.9%
same,residual activity,[17],99.6%
same,residual activity,[18],90.2%
same,residual activity,[19],103%
same,residual activity,[20],108%
same,residual activity,[21],93.9%
same,residual activity,[22],106%
same,residual activity,[23],98.4%
same,residual activity,[24],92.1%
same,residual activity,[25],101%
same,residual activity,[26],104%
same,residual activity,[27],108%
same,residual activity,[28],101%
same,residual activity,[29],99.4%
same,residual activity,[30],104%
same,residual activity,[31],104%
same,residual activity,[32],22.4%
same,residual activity,[33],88.1%
same,residual activity,[34],78%
same,residual activity,[35],95.1%
same,residual activity,[36],89.2%
same,residual activity,[37],96%
same,residual activity,[38],93.6%
same,residual activity,[39],95.4%
same,residual activity,[40],100%
same,residual activity,[41],92%
Fc1ccc(-c2nc3n(c2-c2ccncc2)CCS3)cc1,residual activity,[1],109%
same,residual activity,[2],92.1%
same,residual activity,[3],98.5%
same,residual activity,[4],97.8%
same,residual activity,[5],113%
same,residual activity,[6],115%
same,residual activity,[7],98.2%
same,residual activity,[8],58.8%
same,residual activity,[9],6.99%
same,residual activity,[10],20%
same,residual activity,[11],100%
same,residual activity,[12],102%
same,residual activity,[13],97.5%
same,residual activity,[42],99.3%
same,residual activity,[14],104%
same,residual activity,[15],92.6%
same,residual activity,[16],84.1%
same,residual activity,[17],116%
same,residual activity,[18],99.2%
same,residual activity,[19],102%
same,residual activity,[20],106%
same,residual activity,[21],93.6%
same,residual activity,[22],106%
same,residual activity,[23],95.7%
same,residual activity,[24],99.8%
same,residual activity,[25],97.2%
same,residual activity,[26],92.7%
same,residual activity,[27],100%
same,residual activity,[28],101%
same,residual activity,[29],92.5%
same,residual activity,[30],107%
same,residual activity,[31],121%
same,residual activity,[32],99.1%
same,residual activity,[33],93.9%
same,residual activity,[34],102%
same,residual activity,[35],91.1%
same,residual activity,[36],97.1%
same,residual activity,[37],95.8%
same,residual activity,[38],98.2%
same,residual activity,[40],106%
same,residual activity,[41],99.4%
